In this assay the target is T1, recombinant human cytosolic PEPCK (GST-PEPCK) (Homo sapiens, UniProt P35558).
T1 construct: made in house; host or cells: E. coli
T1 sequence (P35558 1-622): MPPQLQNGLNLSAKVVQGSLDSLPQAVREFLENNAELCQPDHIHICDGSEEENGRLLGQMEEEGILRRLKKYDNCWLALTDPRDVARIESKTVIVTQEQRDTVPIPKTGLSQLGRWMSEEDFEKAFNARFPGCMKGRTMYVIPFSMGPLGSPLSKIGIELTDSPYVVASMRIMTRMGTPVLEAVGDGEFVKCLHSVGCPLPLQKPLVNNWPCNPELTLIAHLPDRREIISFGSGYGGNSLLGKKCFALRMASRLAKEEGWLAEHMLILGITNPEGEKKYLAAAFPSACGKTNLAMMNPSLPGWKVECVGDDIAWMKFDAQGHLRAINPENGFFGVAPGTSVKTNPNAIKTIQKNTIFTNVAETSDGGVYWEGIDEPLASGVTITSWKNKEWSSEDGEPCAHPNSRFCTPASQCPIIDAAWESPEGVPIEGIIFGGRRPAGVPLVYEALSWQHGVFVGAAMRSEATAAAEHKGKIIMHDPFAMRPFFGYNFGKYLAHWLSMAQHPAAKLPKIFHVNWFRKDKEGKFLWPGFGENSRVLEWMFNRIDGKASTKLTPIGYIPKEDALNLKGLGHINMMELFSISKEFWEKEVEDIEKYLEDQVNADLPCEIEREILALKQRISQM
Briefly: PEPCK enzyme assay (coupled to pyruvate kinase / lactate dehydrogenase, absorbance at 340 nm). It counts as biochemical. To be noted: in vitro PEPCK enzymatic assay; GTP at 3 fold and OAA at 10 fold Km; final DMSO 10%; room temperature, twenty minutes. As for the experimental part:
E. coli cells expressing GST-PEPCK were suspended in 5 volumes of lysis buffer (50 mM Tris-hydroxymethyl aminomethyl (TRIS), 150 mM sodium chloride (NaCl), 10 mM ethylene-diametetraacetic acid (EDTA), 5 mM dithiothreitol(DTT), 1% Nonidet P-40, pH 7.4) in the presence of protease inhibitors, incubated with lysozyme at 200 micrograms/ml for 30 min. at room temperature, and sonicated 4×30 seconds at 4 degrees C. After centrifugation at 12,000×g for 20 min. to remove insoluble material, the supernatant was loaded onto glutathione Sepharose (Pharmacia), washed with lysis buffer followed by washing with lysis buffer in the absence of NP-40. GST-PEPCK was eluted with the same buffer containing 20 mM glutathione. The eluted protein was concentrated and dialyzed against 25 mM Hepes(N-[2-hydroxyethyl]piperazine-N′[2-ethanesulfonic acid), 150 mM NaCl, 2.5 mM EDTA, 5 mM DTT, 30% glycerol, pH 7.4, and stored at −20° C.
The inhibitory effect of the compounds of the present invention on PEPCK enzymatic activity was determined using recombinant human cytosolic PEPCK, expressed and purified from E.coli as a GST-fusion. Guanosine triphosphate (GTP) and manganese dependent PEPCK enzyme activity catalyzed the decarboxylation of oxalacetate leading to the formation of guanosine diphosphate (GDP) and phosphoenol pyruvate (PEP). This reaction is coupled to pyruvate kinase and lactate dehydrogenase catalyzed reactions and the overall reaction rate determined by measuring the change in absorbance at 340 nm (Chang, H. C. and Lane M. D., J. Biol. Chem. 241:2413–2420, 1966). The following modifications were made to the protocol: 2.5 μg of recombinant, human cytosolic glutathione-S-transferase (GST)-PEPCK was added to a reaction mixture at room temperature which contained 0.3 mM GTP, 0.3 mM oxaloacetate (OAA), 3 mM magnesium chloride (MgCl2), 0.075 mM manganese chloride (MnCl2), 30 mM potassium phosphates (KPO4), pH 7.6, 1 mM dithiothreitol (DTT), 0.2 mM adenosine diphosphate (ADP), 1 mM nicotinamide adenine dinucleotide, reduced form (NADH), 0.9 Units/ml each of pyruvate kinase and lactate dehydrogenase and 1 mg/ml bovine serum albumin (BSA). Test compounds were added such that final concentration of DMSO was 10%. Reactions were run for twenty minutes.
Km values for GTP and OAA were determined according to Michelis-Menton conditions as described in Comish-Bowden (Fundamentals of Enzyme Kinetics, 1995) in essentially the coupled assay conditions described above. […] Test compounds were added to reactions over a range of concentrations and IC50's were calculated from plots of inhibitor concentration versus enzyme rate. This method of determination of IC50 values is equally applicable to calculations based on PEPCK cellular assay.
A word on the IC50: it is the concentration at which inhibition is half-maximal. Take `CS(=O)(=O)Nc1ccc(Cc2nc3c([nH]2)c(=O)n(Cc2ccccc2F)c(=O)n3CC2CC2)cc1` [Example 23, N-{4-[3-Cyclopropylmethyl-1-(2-fluoro-benzyl)-2,6-dioxo-2,3,6,7-tetrahydro-1H-purin-8-ylmethyl]-phenyl}-methanesulfonamide]: the IC50 turned out to be 1.25 µM. As to `CCCCn1c(=O)n(Cc2ccccc2)c(=O)c2[nH]c(Cc3ccc(NS(C)(=O)=O)cc3)nc21` [Example 24, N-[4-(1-Benzyl-3-butyl-2,6-dioxo-2,3,6,7-tetrahydro-1H-purin-8-ylmethyl)-phenyl]-methanesulfonamide], the IC50 is 7.55 µM. For the molecule `CCCCn1c(=O)n(Cc2ccccc2F)c(=O)c2[nH]c(Cc3ccc(NS(=O)(=O)c4c(C)nn(C)c4Cl)cn3)nc21` [Example 25, 5-Chloro-1,3-dimethyl-1H-pyrazole-4-sulfonic acid {6-[3-butyl-1-(2-fluoro-benzyl)-2,6-dioxo-2,3,6,7-tetrahydro-1H-purin-8-ylmethyl]-pyridin-3-yl}-amide], the IC50 amounted to 0.88 µM. As to `Cc1nn(C)c(Cl)c1S(=O)(=O)Nc1ccc(Cc2nc3c([nH]2)c(=O)n(Cc2ccccc2F)c(=O)n3CC2CCC2)nc1` [Example 26, 5-Chloro-1,3-dimethyl-1H-pyrazole-4-sulfonic acid {6-[3-cyclobutylmethyl-1-(2-fluoro-benzyl)-2,6-dioxo-2,3,6,7-tetrahydro-1H-purin-8-ylmethyl]-pyridin-3-yl}-amide], the IC50 turned out to be 0.98 µM. As for `Cc1nn(C)cc1S(=O)(=O)N(C)c1ccc(Cc2nc3c([nH]2)c(=O)n(Cc2ccccc2F)c(=O)n3CC2CC2)cc1` [Example 27, 1,3-Dimethyl-1H-pyrazole-4-sulfonic acid {4-[3-cyclopropylmethyl-1-(2-fluoro-benzyl)-2,6-dioxo-2,3,6,7-tetrahydro-1H-purin-8-ylmethyl]-phenyl}-methyl-amide], the figure is 1.45 µM; as for `CCCCn1c(=O)n(Cc2ccccc2F)c(=O)c2[nH]c(Cc3ccc(S(=O)(=O)Nc4ccccn4)cc3)nc21` [Example 28, 4-[3-Butyl-1-(2-fluoro-benzyl)-2,6-dioxo-2,3,6,7-tetrahydro-1H-purin-8-ylmethyl]-N-pyridin-2-yl-benzenesulfonamide], 2.4 µM; as for `CCCCn1c(=O)n(Cc2ccccc2F)c(=O)c2[nH]c(Cc3ccc(S(=O)(=O)Nc4ccncc4)cc3)nc21` [Example 29, 4-[3-Butyl-1-(2-fluoro-benzyl)-2,6-dioxo-2,3,6,7-tetrahydro-1H-purin-8-ylmethyl]-N-pyridin-4-yl-benzenesulfonamide], 2.4 µM. For the molecule `CCCCn1c(=O)n(Cc2ccccc2F)c(=O)c2[nH]c(Cc3ccc(S(=O)(=O)Nc4cccnc4)cc3)nc21` [Example 30, 4-[3-Butyl-1-(2-fluoro-benzyl)-2,6-dioxo-2,3,6,7-tetrahydro-1H-purin-8-ylmethyl]-N-pyridin-3-yl-benzenesulfonamide], the IC50 was 4.1 µM. As for `CCCCn1c(=O)n(Cc2ccccc2F)c(=O)c2[nH]c(Cc3ccc(S(=O)(=O)Nc4ncccn4)cc3)nc21` [Example 31, 4-[3-Butyl-1-(2-fluoro-benzyl)-2,6-dioxo-2,3,6,7-tetrahydro-1H-purin-8-ylmethyl]-N-pyrimidin-2-yl-benzenesulfonamide], the figure is 6.35 µM; as for `CCCCn1c(=O)n(Cc2ccccc2F)c(=O)c2[nH]c(Cc3ccc(S(=O)(=O)Nc4c(C)nn(C)c4C)cc3)nc21` [Example 32, 4-[3-Butyl-1-(2-fluoro-benzyl)-2,6-dioxo-2,3,6,7-tetrahydro-1H-purin-8-ylmethyl]-N-(1,3,5-trimethyl-1H-pyrazol-4-yl)-benzenesulfonamide], 6.45 µM.

The values above are taken from patent publication US7148229B2, “Sulfonamide substituted xanthine derivatives” (Hoffman-La Roche Inc., priority 2003, dated 2006).
